Drawing on patent US8796259B2, “N3-heteroaryl substituted triazoles and N5-heteroaryl substituted triazoles useful as axl inhibitors” (Rigel Pharmaceuticals, Inc., priority 2006, dated 2014), this text covers IC50 for 19 compounds.

In general, IC50 refers to the midpoint of a concentration-inhibition curve. High values mean lower potency, low ones higher potency.

The test concerns the target T1, Axl (Homo sapiens, UniProt P30530).
T1 construct: endogenous in cells; host or cells: HeLa cells
T1 sequence (P30530 26-894): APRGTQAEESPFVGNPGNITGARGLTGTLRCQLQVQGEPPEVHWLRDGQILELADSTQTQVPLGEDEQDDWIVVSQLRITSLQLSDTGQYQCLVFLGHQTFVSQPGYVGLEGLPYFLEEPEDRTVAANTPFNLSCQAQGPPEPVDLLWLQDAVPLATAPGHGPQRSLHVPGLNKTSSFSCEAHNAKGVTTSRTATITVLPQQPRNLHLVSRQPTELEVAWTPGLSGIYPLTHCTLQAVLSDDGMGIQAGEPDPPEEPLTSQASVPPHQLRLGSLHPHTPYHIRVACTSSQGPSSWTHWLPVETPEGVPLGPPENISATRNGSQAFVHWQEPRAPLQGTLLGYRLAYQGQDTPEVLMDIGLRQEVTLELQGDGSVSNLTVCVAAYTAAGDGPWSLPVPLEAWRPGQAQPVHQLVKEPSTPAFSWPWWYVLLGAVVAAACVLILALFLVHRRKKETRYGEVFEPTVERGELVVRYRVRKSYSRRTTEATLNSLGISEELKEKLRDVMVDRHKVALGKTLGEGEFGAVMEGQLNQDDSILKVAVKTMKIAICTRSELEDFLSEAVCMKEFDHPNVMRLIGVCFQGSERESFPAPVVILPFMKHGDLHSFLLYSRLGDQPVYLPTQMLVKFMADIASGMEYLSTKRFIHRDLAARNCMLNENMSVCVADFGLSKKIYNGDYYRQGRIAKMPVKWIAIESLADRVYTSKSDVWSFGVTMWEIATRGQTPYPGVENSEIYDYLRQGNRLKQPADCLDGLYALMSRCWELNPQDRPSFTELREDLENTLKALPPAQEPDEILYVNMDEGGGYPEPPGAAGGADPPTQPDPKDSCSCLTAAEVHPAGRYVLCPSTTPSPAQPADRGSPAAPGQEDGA
In words: Phospho-Akt in-cell Western assay (inhibition of Axl activity, Axl-antibody cross-linking stimulation). In kind it is cell-based. The note with it: Hela cells, phospho-Akt readout; compounds of formula (Ia), Table 1. The method, then: The compounds of the invention were tested in the following assay for their ability to inhibit Axl activity.
Phospho-Akt in-Cell Western Assay
• Cell culture plate: 96 well assay plate (Corning 3610), white, clear bottom, tissue-culture treated. • Cells: Hela cells. • Starvation medium: For Axl stimulation: 0.5% FCS (fetal calf serum) in DMEM, plus Axl/Fc (extracellular domain of AXL fused to immunoglobulin Fc region) (R&D, 154-AL) 500 ng/mL. • For EGF (epidermal growth factor) stimulation: 0.5% FCS in DMEM (Dulbecco's modified Eagles medium). • Poly-L-Lysine 0.01% solution (the working solution): 10 μg/ml, dilute In PBS (phosphate buffered saline). • Axl antibody cross-linking: • 1st: Mouse anti-Axl (R&D, MAB154). • 2nd: Biotin-SP-conjugated AffiniPure goat anti-mouse IgG (H+L) (Jackson ImmunoResearch #115-065-003). • Fixing buffer: 4% formaldehyde in PBS. • Wash buffer: 0.1% TritonX-100 in PBS. • Quenching buffer: 3% H2O2, 0.1% Azide in wash buffer, Azide and hydrogen peroxide (H2O2) are added fresh. • Blocking buffer: 5% BSA in TBST (tris buffered saline plus 0.1% Tween 20). • Primary antibody: Rabbit anti-human Phospho-Akt antibody (Cell Signaling 9271): 1×250 diluted in blocking buffer. • Secondary antibody: HRP (horse radish peroxidase)-conjugated Goat anti-Rabbit secondary, stock solution: Jackson ImmunoResearch (Goat anti-Rabbit HRP, #111-035-144) 1:1 diluted in glycerol, store at −20° C. The working solution: 1×2000 dilution of stock in blocking buffer. • Chemiluminescent working solution (Pierce, 37030): SuperSignal ELISA (enzyme linked immunosorbant assay) Pico Chemiluminescent substrate. • Crystal Violet solution: Stock: 2.5% Crystal violet in methanol, filtered and kept at ambient temperature. The working solution: dilute the stock 1:20 with PBS immediately before use.
10% SDS: working solution: 5% SDS (sodium dodecylsulfate), diluted in PBS
A 96 well TC (tissue culture treated) plate was coated with 10 μg/mL poly-L-Lysine at 37° C. for 30 min, washed twice with PBS, and air-dried for 5 minutes before cells were added. Hela cells were seeded at 10,000 cells/well and the cells were starved in 100 μL starvation medium containing Axl/Fc for 24 hrs.
The cells were pre-treated with test compounds by adding 100 μL of 2× test compound to the starvation medium on the cells. The cells were incubated at 37° C. for 1 hr before stimulation.
The cells were stimulated by Axl-antibody cross-linking as follows: A 5×1st/2nd Axl antibody mixture was made (37.5 μg/mL 1st/100 μg/mL 2 nd) in starvation medium and nutated at 4° C. with thorough mixing for 1-2 hours for clustering. The resulting mix was warmed to 37° C. 50 μL of 5×Axl 1st/2nd of antibody cluster was added to the cells and the cells were incubated at 37° C. for 5 min.
After 5 minutes stimulation, the plate was flicked to remove medium and the plate was tapped onto paper towels. Formaldehyde (4.0% in PBS, 100 μL) was added to fix the cells and the cells were incubated at ambient temperature for 20 min without shaking.
The cells were washed with a plate washer buffer to remove the formaldehyde solution. The plate was flicked to removed excess wash buffer and tapped onto paper towels. Quenching buffer (100 μL) was added to each well and the cells were incubated at ambient temperature for 20 minutes without shaking.
The cells were washed with a plate washer buffer to remove the quenching buffer. Blocking buffer (100 μL) was added and the cells were incubated at ambient temperature for at least an hour with gentle shaking.
The cells were washed with a plate washer buffer and diluted primary antibody (50 μL) was added to each well (blocking buffer was added to the negative control wells instead). The plates were incubated overnight at 4° C. with gentle shaking.
The wash buffer was removed, diluted secondary antibody (100 μL) was added, and the cells were incubated at ambient temperature for 1 hour with gentle shaking. […]

As for `Nc1nc(Nc2ccc3oc(CN4CCCC4)nc3c2)nn1-c1nccc2ccccc12` [compound 1, 1-(isoquinolin-1-yl)-N^3-(2-(pyrrolidin-1-ylmethyl)benzo [d]oxazol-5-yl)-1H-1,2,4-triazole-3,5-diamine], the IC50 lay in the range of 1000 to 10000 nM.

For the compound `Nc1nc(Nc2ccc3oc(CN4CCCC4)nc3c2)nn1-c1ncnc2ccc(Cl)cc12` [compound 2, 1-(6-chloro-quinazolin-4-yl)-N^3-(2-(pyrrolidin-1-ylmethyl)benzo [d]oxazol-5-yl)-1H-1,2,4-triazole-3,5-diamine], the IC50 is 1000 to 10000 nM.

In turn, `Nc1nc(Nc2ccc3c(c2)OCCO3)nn1-c1ccccc1` [compound 3, N^3-(2,3-dihydrobenzo [b][1,4]dioxin-6-yl)-1-phenyl-1H-1,2,4-triazole-3,5-diamine] yielded an IC50 greater than 20000 nM.

The compound `Nc1nc(Nc2ccc3c(c2)OCCO3)nn1-c1nccc2ccccc12` [compound 4, N^3-(2,3-dihydrobenzo [b][1,4]dioxin-6-yl)-1-(isoquinolin-1-yl)-1H-1,2,4-triazole-3,5-diamine] had an IC50 of 1000 to 10000 nM.

`COc1cc2ncnc(-n3nc(Nc4ccc5c(c4)OCCO5)nc3N)c2cc1OC` [compound 5, N^3-(2,3-dihydrobenzo [b][1,4]dioxin-6-yl)-1-(6,7-dimethoxy-quinazolin-4-yl)-1H-1,2,4-triazole-3,5-diamine] came in with an IC50 of less than 1000 nM.

In turn, `COc1cc2ncnc(-n3nc(Nc4ccc(N5CCN(C6CC7CCC6C7)CC5)nc4)nc3N)c2cc1OC` (stereo not shown) [compound 6, 1-(6,7-dimethoxy-quinazoline-4-yl)-N^3-(6-(4-(bicyclo[2.2.1]heptan-2-yl)piperazin-1-yl)pyridin-3-yl)-1H-1,2,4-triazole-3,5-diamine] registered an IC50 of less than 1000 nM.

Turning to `Nc1nc(Nc2ccc(N3CCN(C4CC5CCC4C5)CC3)nc2)nn1-c1nccc2ccccc12` (stereo not shown) [compound 7, 1-(isoquinolin-1-yl)-N^3-(6-(4-(bicyclo[2.2.1]heptan-2-yl)piperazin-1-yl)pyridin-3-yl)-1H-1,2,4-triazole-3,5-diamine], the IC50 was less than 1000 nM.

The compound `COc1cc2ncnc(-n3nc(Nc4ccc(N5CCC(N6CCN(C)CC6)CC5)nc4)nc3N)c2cc1OC` [compound 8, 1-(6,7-dimethoxy-quinazoline-4-yl)-N^3-(6-(4-(4-methyl-piperazin-1-yl)piperidin-1-yl)pyridin-3-yl)-1H-1,2,4-triazole-3,5-diamine] returned an IC50 of less than 1000 nM.

`COc1cc2ncnc(-n3nc(Nc4ccc5c(c4)NC(=O)CCC5)nc3N)c2cc1OC` [compound 9, 1-(6,7-dimethoxy-quinazoline-4-yl)-N^3-(4,5-dihydro-1H-benzo[b]azepin-2(3H)-on-8-yl)-1H-1,2,4-triazole-3,5-diamine] registered an IC50 of 1000 to 10000 nM.

On to `Cc1csc2c(-n3nc(Nc4ccc(N5CCCN(C6CCCC6)CC5)nc4)nc3N)nc(Cl)nc12` [compound 10, 1-(2-chloro-7-methylthieno [3,2-d]pyrimidine-4-yl)-N^3-(6-(4-cyclopentyl-1,4-diazepan-1-yl)pyridin-3-yl)-1H-1,2,4-triazole-3,5-diamine], for which the IC50 is less than 1000 nM.

On to `COc1cc2ncnc(-n3nc(Nc4ccc(N5CCCN(C6CCCC6)CC5)nc4)nc3N)c2cc1OC` [compound 11, 1-(6,7-dimethoxy-quinazoline-4-yl)-N^3-(6-(4-cyclopentyl-1,4-diazepan-1-yl)pyridin-3-yl)-1H-1,2,4-triazole-3,5-diamine], for which the IC50 was less than 1000 nM.

In turn, `Cc1csc2c(-n3nc(Nc4cnc5c(c4)CCN(C4CCCC4)CC5)nc3N)nc(Cl)nc12` [compound 12, 1-(2-chloro-7-methylthieno [3,2-d]pyrimidine-4-yl)-N^3-(7-cyclopentyl-6,7,8,9-tetrahydro-5H-pyrido [3,2-d]azepin-3-yl)-1H-1,2,4-triazole-3,5-diamine] gave an IC50 of 1000 to 10000 nM.

In the case of `COc1cc2ncnc(-n3nc(Nc4cnc5c(c4)CCN(C4CCCC4)CC5)nc3N)c2cc1OC` [compound 13, 1-(6,7-dimethoxy-quinazoline-4-yl)-N^3-(7-cyclopentyl-6,7,8,9-tetrahydro-5H-pyrido[3,2-d]azepin-3-yl)-1H-1,2,4-triazole-3,5-diamine], the IC50 was less than 1000 nM.

Turning to `Cc1csc2c(-n3nc(Nc4cnc5c(c4)CN(C)CC5)nc3N)nc(Cl)nc12` [compound 14, 1-(2-chloro-7-methylthieno [3,2-d]pyrimidine-4-yl)-N^3-(6-methyl-5,6,7,8-tetrahydro-1,6-naphthyridin-3-yl)-1H-1,2,4-triazole-3,5-diamine], the IC50 is greater than 20000 nM.

`Cc1csc2c(-n3nc(Nc4ccc(N5CCN(C)CC5)nc4)nc3N)nc(Cl)nc12` [compound 15, 1-(2-chloro-7-methylthieno [3,2-d]pyrimidine-4-yl)-N^3-(6-(4-methyl-piperazin-1-yl)pyridin-3-yl)-1H-1,2,4-triazole-3,5-diamine] returned an IC50 of less than 1000 nM.

`CN1CCc2ncc(Nc3nc(N)n(-c4nccc5ccccc45)n3)cc2C1` [compound 16, 1-(isoquinolin-1-yl)-N^3-(6-methyl-5,6,7,8-tetrahydro-1,6-naphthyridin-3-yl)-1H-1,2,4-triazole-3,5-diamine] returned an IC50 of less than 1000 nM.

`Cc1csc2c(-n3nc(Nc4ccc(N5CCC(N6CCCC6)CC5)nc4)nc3N)nc(Cl)nc12` [compound 17, 1-(2-chloro-7-methyithieno [3,2-d]pyrimidine-4-yl)-N^3-(6-(4-(pyrrolidin-1-yl)piperidin-1-yl)pyridine-3-yl)-1H-1,2,4-triazole-3,5-diamine]: the IC50 is less than 1000 nM.

On to `Cc1csc2c(-n3nc(Nc4cnc5c(c4)CN(Cc4ccccc4)CC5)nc3N)nc(Cl)nc12` [compound 18, 1-(2-chloro-7-methylthieno [3,2-d]pyrimidine-4-yl)-N^3-(6-benzyl-5,6,7,8-tetrahydro-1,6-naphthyridin-3-yl)-1H-1,2,4-triazole-3,5-diamine], for which the IC50 lay in the range of 10000 to 20000 nM.

In the case of `CCOC(=O)N1CCc2ncc(Nc3nc(N)n(-c4nc(Cl)nc5c(C)csc45)n3)cc2C1` [compound 19, 1-(2-chloro-7-methylthieno [3,2-d]pyrimidine-4-yl)-N^3-(6-(ethylcarboxy)-5,6,7,8-tetrahydro-1,6-naphthyridin-3-yl)-1H-1,2,4-triazole-3,5-diamine], the concentration for half-maximal inhibition (IC50) is greater than 20000 nM.
